The molecules below were run against T1, PAR-1 receptor (Cricetulus griseus, UniProt A0A8C2QJ57) (assay: Calcium release (FLIPR) antagonism of SFLLR-activated PAR-1 in CHO cells). Conditions: SFLLR agonist, Schild method from EC50 shifts at three concentrations, read-out: pA2 (converted).
T1 construct: Chinese hamster ovarian (CHO) cells constituently express PAR-1 receptor; endogenous in cells; host or cells: CHO cells
T1 sequence (A0A8C2QJ57 22-428): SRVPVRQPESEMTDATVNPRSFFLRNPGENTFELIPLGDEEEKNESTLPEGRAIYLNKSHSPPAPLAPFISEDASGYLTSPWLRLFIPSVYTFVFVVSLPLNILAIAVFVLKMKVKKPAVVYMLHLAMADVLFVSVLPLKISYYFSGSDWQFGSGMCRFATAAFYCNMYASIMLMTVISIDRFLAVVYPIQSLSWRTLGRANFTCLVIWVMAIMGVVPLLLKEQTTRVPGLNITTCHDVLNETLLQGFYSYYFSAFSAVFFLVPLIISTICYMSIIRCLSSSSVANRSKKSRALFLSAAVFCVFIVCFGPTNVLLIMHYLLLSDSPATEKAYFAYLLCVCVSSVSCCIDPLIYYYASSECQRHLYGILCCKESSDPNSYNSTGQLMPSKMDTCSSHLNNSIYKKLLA
Assay type: cell-based, Chinese hamster
Method: In a variety of cell types, activation of PAR-1 receptors by the SFLLR peptide (a selective PAR-1 agonist) triggers an intracellular signal cascade leading to the release of calcium by the endoplasmic reticulum. Chinese hamster ovarian (CHO) cells constituently express PAR-1 receptor. In this cell line, the release of calcium consecutive to receptor activation by SFLLR is measured by a fluorometry technique (fluorometric imaging plate reader, or FLIPR) using a selective probe for calcium (Fluo-3AM). The emission of fluorescence is pharmacologically proportional to the efficiency of the PAR-1 agonist and to its concentration.
Culture medium: Ham's F-12 (Ham, R. G., Proc. Nat. Acad. Sci. 1965, 53: 288) supplemented with 10% fetal calf serum and […].
Fluorescent probe: Fluo-3AM (4 μM; Teflabs, Austin, Tex., USA)
Agonist: SFLLR-NH2 (Serine, phenylalanine, leucine, leucine, arginine).
Methods: CHO cells are inoculated in 96-well plates (60,000 cells per well) in the presence of 200 μl of culture medium for 24 hours. The cells are incubated with the calcium fluorescent probe for 1 hour at 37° C. The cells are then washed 10 minutes before the signal is measured. PAR-1 antagonist is then injected (0.01 μM to 10 μM). The plates are placed in the FLIPR (Molecular Devices, UK) to measure calcium fluorescence at two wavelengths (488 nm and 540 nm: Sullivan et al., Calcium Signaling Protocols 1999, 125-136). Measurements are taken for 5 min before the antagonist is added and for 10 min following its administration. Maximum fluorescence minus baseline fluorescence is measured in 4 different wells. The test is carried out in duplicate. Under these conditions, the derivatives of the present invention were identified as PAR-1 receptor antagonists (antagonism >60% of the calcium signal at 10 μM). The dose-response curves (0.01 μM to 32 μM) obtained with the SFLLR agonist allowed determination of the effective concentration inducing 50% of the maximum effect (EC50). The strengths (pA2) of some of the PAR-1 antagonists described in the present invention were calculated using the method of Arunlakshana and Schild (Brit. J. Pharmacol., 1959, 14: 48-58) from the EC50 shifts observed at three concentrations.

SMILES | Kb
N#Cc1ccccc1/C=C/C=C/C(=O)N1CCN(c2ccccn2)CC1 [Example 1, 2-[5-Oxo-5-(4-pyridin-2-yl-piperazin-1-yl)-penta-1,3-dienyl]-benzonitrile] | 316 nM
O=C(/C=C/C=C/c1ccccc1[N+](=O)[O-])N1CCN(C2CCCC2)CC1 [Example 18, 1-(4-Cyclopentyl-piperazin-1-yl)-5-(2-nitro-phenyl)-penta-2,4-dien-1-one] | 69.2 nM
O=C(C=CC=Cc1ccccc1[N+](=O)[O-])N1CCN(c2ccccn2)CC1 [Example 21, 5-(2-Nitro-phenyl)-1-(4-pyridin-2-yl-piperazin-1-yl)-penta-2,4-dien-1-one] | 77.6 nM

Continued, values first:

Kb | SMILES
58.9 nM | O=C(/C=C/C=C/c1ccccc1[N+](=O)[O-])N1CCN(c2ccccc2)CC1 [Example 16, 5-(2-Nitro-phenyl)-1-(4-phenyl-piperazin-1-yl)-penta-2,4-dien-1-one]
234 nM | N#Cc1ccccc1/C=C/C=C/C(=O)N1CCN(C2CCCC2)CC1 [Example 2, 2-[5-(4-Cyclopentyl-piperazin-1-yl)-5-oxo-penta-1,3-dienyl]-benzonitrile]
229 nM | O=C(/C=C/C=C/c1ccccc1Cl)N1CCN(C2CCCC2)CC1 [Example 9, 5-(2-Chloro-phenyl)-1-(4-cyclopentyl-piperazin-1-yl)-penta-2,4-dien-1-one]

Source: US8022064B2, “Phenylpentadienoyl derivatives and their use as PAR 1 antagonists” (Pierre Fabre Medicament, priority 2006, dated 2011)
